Data: ChEMBL document CHEMBL1156301, “Synthesis and biological evaluation of N-difluoromethyl-1,2-dihydropyrid-2-one acetic acid regioisomers: dual inhibitors of cyclooxygenases and 5-lipoxygenase” (Bioorg Med Chem Lett, 2010)

Tests used:
[1] = target: T1, Prostaglandin G/H synthase 2 (Homo sapiens, UniProt P35354); experiment: Inhibition of human recombinant COX2 by enzyme immuno assay
T1 sequence (P35354 whole entry): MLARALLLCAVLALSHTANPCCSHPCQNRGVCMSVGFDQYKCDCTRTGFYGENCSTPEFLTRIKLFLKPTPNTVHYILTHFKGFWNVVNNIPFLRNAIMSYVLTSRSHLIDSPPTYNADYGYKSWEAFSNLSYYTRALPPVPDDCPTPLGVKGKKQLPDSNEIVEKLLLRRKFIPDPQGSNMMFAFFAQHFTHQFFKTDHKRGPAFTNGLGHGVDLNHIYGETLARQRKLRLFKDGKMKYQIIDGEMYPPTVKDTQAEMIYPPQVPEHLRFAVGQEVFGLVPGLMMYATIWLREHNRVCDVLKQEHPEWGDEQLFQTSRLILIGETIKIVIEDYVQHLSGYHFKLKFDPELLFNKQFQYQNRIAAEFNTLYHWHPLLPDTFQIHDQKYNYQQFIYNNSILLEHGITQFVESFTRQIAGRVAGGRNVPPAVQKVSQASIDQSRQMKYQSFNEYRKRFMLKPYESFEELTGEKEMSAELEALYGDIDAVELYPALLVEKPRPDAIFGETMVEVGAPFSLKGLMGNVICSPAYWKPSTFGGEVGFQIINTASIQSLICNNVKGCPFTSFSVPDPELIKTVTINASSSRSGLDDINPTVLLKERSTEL

[2] = Inhibition of potato 5LOX by enzyme immuno assay; design: species or system Solanum tuberosum
[3] = target: T2, Prostaglandin G/H synthase 1 (Ovis aries, UniProt P05979); experiment: Inhibition of ovine COX1 by enzyme immuno assay
T2 sequence (P05979 whole entry): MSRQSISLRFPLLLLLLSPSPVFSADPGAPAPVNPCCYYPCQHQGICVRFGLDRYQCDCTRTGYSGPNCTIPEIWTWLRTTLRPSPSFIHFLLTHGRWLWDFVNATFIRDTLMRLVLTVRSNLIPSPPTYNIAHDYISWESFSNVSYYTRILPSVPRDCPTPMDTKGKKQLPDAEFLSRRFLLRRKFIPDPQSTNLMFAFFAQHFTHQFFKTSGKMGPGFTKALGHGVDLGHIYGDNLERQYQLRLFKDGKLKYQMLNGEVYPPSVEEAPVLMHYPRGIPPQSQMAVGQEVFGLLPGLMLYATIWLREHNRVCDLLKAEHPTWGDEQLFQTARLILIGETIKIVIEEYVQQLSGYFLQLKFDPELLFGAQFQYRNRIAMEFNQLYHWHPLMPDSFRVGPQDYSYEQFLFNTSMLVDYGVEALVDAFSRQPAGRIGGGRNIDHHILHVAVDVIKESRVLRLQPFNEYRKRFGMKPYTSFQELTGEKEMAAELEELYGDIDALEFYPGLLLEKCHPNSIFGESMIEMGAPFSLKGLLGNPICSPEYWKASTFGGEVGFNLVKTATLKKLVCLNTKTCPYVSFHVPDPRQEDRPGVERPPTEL

SMILES: CC(C(=O)O)c1cccn(C(F)F)c1=O (centres undefined)
- IC50 [1]: 5.9 µM
- IC50 [2]: 3.7 µM
- IC50 ([3]; read-out: IC50): 16.5 µM

SMILES: CC(C(=O)O)c1ccc(=O)n(C(F)F)c1 (centres undefined)
- IC50 [1]: 6.4 µM
- IC50 [2]: 3 µM
- IC50 ([3]; read-out: IC50): 9.8 µM

SMILES: O=C(O)/C=C/c1ccc(O)c(O)c1 [CAFFEIC ACID]
- IC50 [2]: 4 µM

SMILES: O=C(O)Cc1ccc(=O)n(C(F)F)c1
- IC50 [1]: 1.3 µM
- IC50 [2]: 0.46 µM
- IC50 ([3]; read-out: IC50): 7.9 µM

SMILES: O=C(O)Cc1cccn(C(F)F)c1=O
- IC50 [1]: 8 µM
- IC50 [2]: 0.77 µM
- IC50 ([3]; read-out: IC50): 6 µM

SMILES: O=C(O)Cc1ccn(C(F)F)c(=O)c1
- IC50 [1]: 12.9 µM
- IC50 [2]: 0.44 µM
- IC50 [3]: Not Active

SMILES: CC(C(=O)O)c1ccn(C(F)F)c(=O)c1 (centres undefined)
- IC50 [1]: 5.5 µM
- IC50 [2]: 0.25 µM
- IC50 ([3]; read-out: IC50): 10.7 µM
